We go through 19 compounds from ChEMBL document CHEMBL1909046, “DrugMatrix in vitro pharmacology data”.

For test [1], the target named is 5-hydroxytryptamine receptor 4 (Cavia porcellus, UniProt O70528). The format is cell membranes, Dunkin-Hartley, Striatum, Membrane. Note: in other assays of this panel Not Active means under 50% inhibition at 10 µM.
The nature of test [2]: DRUGMATRIX: GABAA, Chloride Channel, TBOB radioligand binding (ligand: [3H] TBOB). The class given is cell membranes, Rattus norvegicus, Wistar, Cerebral cortex, Membrane. Particulars: Not Active = under 50% inhibition at 10 µM.
Test [3] can be described thus: DRUGMATRIX: Glutamate, NMDA, Phencyclidine radioligand binding (ligand: [3H] TCP). The class given is cell membranes, Rattus norvegicus, Wistar, Cerebral cortex, Membrane. Particulars: Not Active = under 50% inhibition at 10 µM.
The target in another test is Melanocortin receptor 3 (Homo sapiens, UniProt P41968). The class given is cell membranes, Membrane. The following applies: hek293. Note: in other assays of this panel Not Active means under 50% inhibition at 10 µM.
Chain of Melanocortin receptor 3 (P41968 whole entry): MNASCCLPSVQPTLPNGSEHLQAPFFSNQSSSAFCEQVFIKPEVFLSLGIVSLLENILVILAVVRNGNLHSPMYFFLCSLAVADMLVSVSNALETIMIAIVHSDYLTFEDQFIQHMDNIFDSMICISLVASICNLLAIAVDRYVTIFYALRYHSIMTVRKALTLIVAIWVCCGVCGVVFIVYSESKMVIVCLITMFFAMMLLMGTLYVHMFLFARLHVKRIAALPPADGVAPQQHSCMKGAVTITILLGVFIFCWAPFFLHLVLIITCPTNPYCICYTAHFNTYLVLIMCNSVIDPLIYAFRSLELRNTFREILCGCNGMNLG
Test [4] in a line: DRUGMATRIX: Potassium Channel [KATP] radioligand binding (ligand: [3H] Glyburide). The following applies: hit-t15, Not Active = under 50% inhibition at 10 µM. The format is cell membranes, Membrane.
In the next test the target is T1, Caspase-1 (Homo sapiens, UniProt P29466).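 Note: Caspase-1 enzyme inhibition assay with a peptide substrate; in other assays of this panel Not Active means under 50% inhibition at 10 µM.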
T1 sequence (P29466 whole entry): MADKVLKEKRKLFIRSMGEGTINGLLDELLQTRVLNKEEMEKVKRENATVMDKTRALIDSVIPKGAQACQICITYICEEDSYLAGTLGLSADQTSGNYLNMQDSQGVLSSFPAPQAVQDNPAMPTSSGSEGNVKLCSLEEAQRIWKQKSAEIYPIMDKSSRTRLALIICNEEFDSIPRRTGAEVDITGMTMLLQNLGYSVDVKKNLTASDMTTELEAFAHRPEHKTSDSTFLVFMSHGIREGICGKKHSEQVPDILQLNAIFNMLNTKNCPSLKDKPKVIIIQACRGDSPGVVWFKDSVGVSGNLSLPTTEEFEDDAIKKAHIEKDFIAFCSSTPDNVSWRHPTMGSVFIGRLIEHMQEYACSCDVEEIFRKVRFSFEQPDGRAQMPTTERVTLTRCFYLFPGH
Further details: species or system Escherichia coli.

Chain of 5-hydroxytryptamine receptor 4 (O70528 whole entry): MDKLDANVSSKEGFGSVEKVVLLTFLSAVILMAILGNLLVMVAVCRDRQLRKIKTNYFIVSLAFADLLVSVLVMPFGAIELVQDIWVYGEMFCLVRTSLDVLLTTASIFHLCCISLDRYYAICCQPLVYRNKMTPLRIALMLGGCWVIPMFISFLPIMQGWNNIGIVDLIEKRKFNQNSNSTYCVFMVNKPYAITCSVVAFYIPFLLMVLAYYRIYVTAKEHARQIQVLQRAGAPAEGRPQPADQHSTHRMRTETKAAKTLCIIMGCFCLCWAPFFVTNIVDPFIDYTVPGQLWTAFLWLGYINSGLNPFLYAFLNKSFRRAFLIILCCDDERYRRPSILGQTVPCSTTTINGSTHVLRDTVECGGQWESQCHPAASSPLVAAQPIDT

For `COc1ccc2cc([C@H](C)C(=O)O)ccc2c1` [NAPROXEN], the IC50 result (in test [1]; in test [2]; in test [3]; on Melanocortin receptor 3; in test [4]; against Caspase-1) was “Not Active” throughout. Further, the Ki result in test [2], in test [3] and in test [4] was “Not Active” each time.

With `CC(C)[C@H]1CC[C@H](C(=O)N[C@H](Cc2ccccc2)C(=O)O)CC1` [NATEGLINIDE], the 50% inhibitory concentration (IC50) (as a rule, the midpoint of a concentration-inhibition curve) in test [1] was “Not Active”; in test [2] it was “Not Active”; in test [3] it was “Not Active”; at Melanocortin receptor 3 it was “Not Active”; in test [4] (read-out: IC50) it was 1670 nM; against Caspase-1, “Not Active”. Also, the Ki (commonly the dissociation constant of the complex between target and ligand, obtained from inhibition or displacement) in test [2] is “Not Active”; in test [3], “Not Active”; in test [4] (read-out: Ki), 189 nM.

In the case of `CCN[C@@H]1C[C@H](N)[C@@H](O[C@H]2OC(CN)=CC[C@H]2N)[C@H](O)[C@H]1O[C@H]1OC[C@](C)(O)[C@H](NC)[C@H]1O` [NETILMICIN], the IC50 entry (in test [1]; in test [2]; in test [3]; at Melanocortin receptor 3; in test [4]; at Caspase-1) was “Not Active” in each case. For the same compound, the Ki result in test [2], in test [3] and in test [4] was “Not Active” each time.

Take `COC(=O)C1=C(C)NC(C)=C(C(=O)OCC(C)C)C1c1ccccc1[N+](=O)[O-]` (centres undefined) [NISOLDIPINE]: the half-inhibitory concentration (IC50) result (in test [1]; in test [2]; in test [3]; against Melanocortin receptor 3; in test [4]; against Caspase-1) was “Not Active” each time. Moreover, the Ki entry in test [2], in test [3] and in test [4] was “Not Active” throughout.

In the case of `CCOC(=O)C1=C(C)NC(C)=C(C(=O)OC)C1c1cccc([N+](=O)[O-])c1` (centres undefined) [NITRENDIPINE], the IC50 result (in test [1]; in test [2]; in test [3]; on Melanocortin receptor 3; in test [4]; at Caspase-1) was “Not Active” each time. Besides, the Ki result in test [2], in test [3] and in test [4] was “Not Active” in each case.

Take `C#C[C@]1(OC(C)=O)CC[C@H]2[C@@H]3CCC4=CC(=O)CC[C@@H]4[C@H]3CC[C@@]21C` [NORETHINDRONE ACETATE]: the IC50 result (in test [1]; in test [2]; in test [3]; at Melanocortin receptor 3; in test [4]; at Caspase-1) was “Not Active” throughout. In addition, the Ki entry in test [2], in test [3] and in test [4] was “Not Active” throughout.

Turning to `COc1ccc2[nH]c([S+]([O-])Cc3ncc(C)c(OC)c3C)nc2c1` (centres undefined) [OMEPRAZOLE], the IC50 result (in test [1]; in test [2]; in test [3]; against Melanocortin receptor 3; in test [4]; on Caspase-1) was “Not Active” throughout. Besides, the Ki result in test [2], in test [3] and in test [4] was “Not Active” throughout.

As for `Cc1nccn1CC1CCc2c(c3ccccc3n2C)C1=O` (centres undefined) [ONDANSETRON], the IC50 entry (in test [1]; in test [2]; in test [3]; against Melanocortin receptor 3; in test [4]; against Caspase-1) was “Not Active” each time. Also, the Ki entry in test [2], in test [3] and in test [4] was “Not Active” throughout.

On to `CCn1cc(C(=O)O)c(=O)c2cc(F)c(N3CCN(C)CC3)cc21` [PEFLOXACIN], for which the IC50 result (in test [1]; in test [2]; in test [3]; at Melanocortin receptor 3; in test [4]; at Caspase-1) was “Not Active” throughout. In addition, the Ki entry in test [2], in test [3] and in test [4] was “Not Active” in each case.

In the case of `CCCCOc1ccc(OCCCN2CCOCC2)cc1` [PRAMOXINE], the IC50 entry (in test [1]; in test [2]; in test [3]; against Melanocortin receptor 3; in test [4]; at Caspase-1) was “Not Active” in each case. The Ki result in test [2], in test [3] and in test [4] was “Not Active” throughout.

As to `O=C(C1CCCCC1)N1CC(=O)N2CCc3ccccc3C2C1` (centres undefined) [PRAZIQUANTEL], the IC50 entry (in test [1]; in test [2]; in test [3]; on Melanocortin receptor 3; in test [4]; at Caspase-1) was “Not Active” throughout. The Ki entry in test [2], in test [3] and in test [4] was “Not Active” each time.

For `CCN(CC)CCOC(=O)c1ccc(N)cc1` [PROCAINE], the 50% inhibitory concentration (IC50) result (in test [1]; in test [2]; in test [3]; at Melanocortin receptor 3; in test [4]; at Caspase-1) was “Not Active” in each case. In addition, the Ki result in test [2], in test [3] and in test [4] was “Not Active” each time.

For the compound `CCCN(CCC)C(=O)C(CCC(=O)O)NC(=O)c1ccccc1` (centres undefined) [PROGLUMIDE], the IC50 entry (in test [1]; in test [2]; in test [3]; against Melanocortin receptor 3; in test [4]; against Caspase-1) was “Not Active” each time. Besides, the Ki result in test [2], in test [3] and in test [4] was “Not Active” each time.

Regarding `NC(=O)c1cnccn1` [PYRAZINAMIDE], the IC50 result (in test [1]; in test [2]; in test [3]; against Melanocortin receptor 3; in test [4]; against Caspase-1) was “Not Active” throughout. Also, the Ki entry in test [2], in test [3] and in test [4] was “Not Active” throughout.

For `OC(CCN1CCCCC1)(c1ccccc1)C1CCCCC1` (centres undefined) [TRIHEXYPHENIDYL], the IC50 result (in test [1]; in test [2]; in test [3]; at Melanocortin receptor 3; in test [4]; against Caspase-1) was “Not Active” throughout. The Ki result in test [2], in test [3] and in test [4] was “Not Active” each time.

On to `Cc1cc2cc3c(C)cc(=O)oc3c(C)c2o1` [TRIOXSALEN], for which the IC50 entry (in test [1]; in test [2]; in test [3]; at Melanocortin receptor 3; in test [4]; at Caspase-1) was “Not Active” in each case. In addition, the Ki result in test [2], in test [3] and in test [4] was “Not Active” in each case.

Take `CCCC(CCC)C(=O)O` [VALPROIC ACID]: the IC50 entry (in test [1]; in test [2]; in test [3]; on Melanocortin receptor 3; in test [4]; against Caspase-1) was “Not Active” in each case. Also, the Ki entry in test [2], in test [3] and in test [4] was “Not Active” throughout.

Turning to `CCC1=C[C@@H]2CN(C1)Cc1c([nH]c3ccccc13)[C@@](C(=O)OC)(c1cc3c(cc1OC)N(C)[C@H]1[C@@](O)(C(=O)OC)[C@H](OC(C)=O)[C@]4(CC)C=CCN5CC[C@]31[C@@H]54)C2` [VINORELBINE], the IC50 entry (in test [1]; in test [2]; in test [3]; against Melanocortin receptor 3; in test [4]; on Caspase-1) was “Not Active” throughout. For the same compound, the Ki result in test [2], in test [3] and in test [4] was “Not Active” throughout.

For CADMIUM DICHLORIDE, the IC50 entry (in test [1]; in test [2]; in test [3]; against Melanocortin receptor 3; in test [4]; against Caspase-1) was “Not Active” throughout. Besides, the Ki result (in test [1]; in test [2]; in test [3]; at Melanocortin receptor 3; in test [4]; at Caspase-1) was “Not Active” throughout.
